Test results published in patent publication US8623331B2, “Compressed chewing gum tablet” (Fertin Pharma A/S, priority 2007, dated 2014).
“Also recorded” adds a separate entry of the source.

What was measured:
[1] = Release control, gum base content different with respect to composition (two-module compressed chewing gum tablet); conditions: first layer: NPR outside the gum base granules; second layer: Na2CO3 approx. 50 Wt-% outside and approx. 50 Wt-% incorporated in the granules
Protocol: (§1) Control of the release was tested for chewing gum tablets comprising two modules with different gum base content and a different active ingredient in each of them.
In this example a gum base content different with respect to composition was investigated. In the first layer the active ingredient (NPR) was added to the chewing gum composition outside the gum base granules and in the second layer the active ingredient (Na2CO3 pH control agent) was added approximately 50 Wt-% to the chewing gum composition outside the gum base granules and approximately 50 Wt-% incorporated in the granules.
To ensure that the result of this example was not due to different API in the two layers, the example was further supplemented with a test with the same amount of a same API incorporated in the granules and added directly to the composition respectively, where it was again seen that the release was dependent on the chewing gum composition

[2] = Release control, gum base content different with respect to weight (two-module compressed chewing gum tablet); conditions: first layer: NPR with a large amount of gum base; second layer: Na2CO3 with a small amount of gum base
Protocol: as §1
In this example a gum base content different with respect to weight was investigated. In the first layer the active ingredient (NPR) was present with a large amount of gum base and in the second layer the active ingredient (Na2CO3 pH control agent) was present with a small amount of gum base.
To ensure that the result of this example was not due to different API in the two layers, the example was further supplemented with a test with two different weights of the same API in the compositions in the two layers, where it was again seen that the release was dependent on the weight of the gum base content in the chewing gum composition.

[3] = Release control, different size of applied chewing gum granules (two-module compressed chewing gum tablet); conditions: first layer: NPR with granules of relatively smaller average diameter; second layer: Na2CO3 with granules of relatively larger average diameter
Protocol: as §1
In this example a gum base content different with respect to size of applied chewing gum granules was investigated.
In the first layer the active ingredient (NPR) was present with chewing gum granules with a relatively smaller average diameter and in the second layer the active ingredient (Na2CO3 pH control agent) was present with chewing gum granules with a relatively larger average diameter.
To ensure that the result of this example was not due to different API in the two layers, the example was further supplemented with a test with the same API in two compositions of different chewing gum granule sizes. Here it was again seen that the release was dependent on the size of the chewing gum granules used in the layers of the gum base content in the chewing gum composition.

- release of active ingredient from the chewing gum tablet [2]: faster than the release of the NPR
- release of active ingredient from the chewing gum tablet [3]: faster than the release of the NPR
Structure (SMILES): O=C([O-])[O-].[Na+].[Na+] [Na2CO3]
- release of active ingredient from the chewing gum tablet [1]: fast release of part of the pH control agent; also recorded: slower release of the remaining part of the pH control agent
